Laboratory results reported in patent US20240024281A1, “METHODS AND COMPOSITIONS FOR TREATING LIVER DISEASES” (INSTITUT NATIONAL DE LA SANTÉ ET DE LA RECHERCHE MÉDICALE, priority 2018, published 2024).
“Also recorded” adds a separate entry of the source.

Tests used:
[1] = tested on: liver cancer cell (HepG2, Huh7 and Hep3B); experiment: Liver cancer cell proliferation; type: cell-based; conditions: for liver cancer cell proliferation and apoptosis, alone and co-treated with sorafenib (confirmation of the STF-083010 data): data not shown
Protocol: (§1) FIG. 3A-B: Inhibition of IRE1α RNase signalling with STF potentiates the effectiveness of Sorafenib in reducing liver cancer cell proliferation and inducing apoptosis. Effect of Sorafenib (SORA, 5 μM), STF-083010 (STF, 60 μM) and their combination on (A) liver cancer cell proliferation (HepG2, Huh7 and Hep3B) and on (B) inducing apoptosis. STF-083010 was added one hour before SORA. Stimulations were performed during 24 hours. $p<0.05 when comparing treated to untreated counterpart. Results are expressed as mean with SEM *p<0.05, **p<0.01, ***p<0.001 and ****p<0.0001.
(§2) FIG. 4: Hyperactive IRE1α RNase triggers secretion of pro-inflammatory markers. Effect of Sorafenib (SORA, […]), Ac-YVAD-CMK (YVAD, 25 μM) and their combination on liver cancer cell proliferation (HepG2) and on inducing apoptosis. Ac-YVAD-CMK (YVAD) was added one hour before SORA. Stimulations were performed during 24 hours. $p<0.05 when comparing treated to untreated counterpart. Results are expressed as mean with SEM *p<0.05, **p<0.01, ***p<0.001 and ****p<0.0001.
FIG. 5A-B: Co-treatment enhancing apoptosis via IRE1α kinase activity. Effect of Sorafenib (SORA, 5 μM), STF-083010 (STF, 60 μM) and their combination on HepG2 cells proliferation with or without (A) JNK inhibitor SP600125 (SP, 50 μM) pre-treatment or (B) Necrostatin (Nec-1, 50 μM) pre-treatment. Stimulations were performed during 24 hours. $p<0.05 when comparing treated to untreated counterpart. Results are expressed as mean with SEM *p<0.05, **p<0.01, ***p<0.001 and ****p<0.0001.

HCC cell lines = experiment: Apoptosis induction in HCC cell lines; type: cell-based; conditions: 24 hours
Protocol: as §1, §2

HFD-fed BI-1−/− mice = experiment: HFD- or ND-fed BI-1+/+ and BI-1−/− mice treated with STF-083010 (NASH development); type: in vivo, mouse
Protocol: FIG. 1A-C: Early Into HFD feeding, limiting the ER stress response by inhibiting IRE1α RNase activity protects from steatosis and hyperglycemia. Starting 2.5 months after HFD feeding, BI-1+/+ and BI-1−/− mice were treated with STF-083010 (30 mg/kg) or vehicle (NT, Kolliphor 16%) twice a week for 2 weeks before sacrifice. (A) Relative liver triglyceride levels.
(A) Protocol timeline for vehicle (NT, Kolliphor 16%) or STF-083010 (30 mg/kg) injections in HFD-fed BI-1+/+ and BI-1−/− mice. (B) qPCR analysis of hepatic genes involved in lipid synthesis and metabolism (n=3). […] (C) Blood glucose concentrations in fed BI-1+/+ and BI-1−/− mice (n=6).
All animal procedures were conducted in compliance with French guidelines for the humane care and use of experimental animals. Male mice with targeted disruption of the BI-1 gene representing BI-1+/+(WT) and BI-1−/− littermates on a C57BL/6 background were obtained from Dr. John C. Reed at the Stanford-Burnham Institute for Medical Research (La Jolla, CA, USA)17,18. Experiments conducted with 12-week old mice included: 1) Mice injected intraperitoneally with TM (1 mg/kg) or vehicle and sacrificed 48 hr after treatment (unless otherwise indicated), 2) Animals either fed a ND (A04—Safe Diet, Augy, France) or HFD (60 kJ % fat, D12492-ssniff, Soest, Germany) for up to 9 months, 3) Towards the end of a 3-month ND or HFD, mice were injected with STF-083010 (30 mg/kg) or vehicle twice a week for 2 weeks before sacrifice. Mice were housed in a controlled environment with 12 hr light/dark cycles with water available ad libitum.
Liver tissue specimens were fixed in 10% buffered formalin, embedded in paraffin, sectioned (5 μm thick) and stained with either H&E, Masson's trichrome, MPO or TUNEL (Roche Molecular Biochemicals, Meylan, France). Specimens were evaluated by microscopy in a blinded manner by a liver pathologist.
(§3) Total RNA was extracted from liver tissue or cells then reverse-transcribed as previously described15. Real-time quantitative PCR was performed using the ABI PRISM 7500/Step-One Fast Real Time PCR System following the manufacturer's protocols in C3M genomics facilities. See the Supporting Methods for TaqMan gene expression assays.
(§4) Total protein was isolated from snap-frozen livers or primary hepatocytes homogenized in detergent-containing buffer, normalized for protein content (40 μg/tissue sample and 20 μg/cell sample), and analyzed by SDS-PAGE (8-15% gels) immunoblotting as previously described15. Western blot analyses were performed using antibodies described in Supporting Methods and detected with an enhanced chemiluminescence method (Amersham Biosciences, Piscataway, NJ, USA). Immunoblots were scanned and the signals were quantified using ImageJ software.
Serum AST and ALT levels were determined using a standardized UV test after activation with pyridoxal-phosphate and serum triglyceride levels were determined by standardized enzymatic colorimetric assay (Roche-Hitachi analyzer Cobas 8000, Meylan, France). Hepatic triglyceride content was measured using a Triglycerides FS 10′ kit (DiaSys, Holzheim, Germany). Cytokines were quantitatively measured by flow cytometry as described15.

IRE1α RNase activity = biological target: T1, IRE1α RNase activity (Mus musculus, UniProt Q9EQY0); experiment: IRE1α RNase signaling (XBP1 mRNA, sXBP1 protein) in primary hepatocytes from BI-1−/− or WT mice; type: cell-based; conditions: BI-1−/− primary hepatocytes; STF-083010 60 μM
T1 construct: Hepatocytes from mouse liver were isolated by a two-step collagenase procedure; endogenous in cells; host or cells: primary hepatocytes isolated from livers of BI-1−/− and WT mice
T1 sequence (Q9EQY0 21-977): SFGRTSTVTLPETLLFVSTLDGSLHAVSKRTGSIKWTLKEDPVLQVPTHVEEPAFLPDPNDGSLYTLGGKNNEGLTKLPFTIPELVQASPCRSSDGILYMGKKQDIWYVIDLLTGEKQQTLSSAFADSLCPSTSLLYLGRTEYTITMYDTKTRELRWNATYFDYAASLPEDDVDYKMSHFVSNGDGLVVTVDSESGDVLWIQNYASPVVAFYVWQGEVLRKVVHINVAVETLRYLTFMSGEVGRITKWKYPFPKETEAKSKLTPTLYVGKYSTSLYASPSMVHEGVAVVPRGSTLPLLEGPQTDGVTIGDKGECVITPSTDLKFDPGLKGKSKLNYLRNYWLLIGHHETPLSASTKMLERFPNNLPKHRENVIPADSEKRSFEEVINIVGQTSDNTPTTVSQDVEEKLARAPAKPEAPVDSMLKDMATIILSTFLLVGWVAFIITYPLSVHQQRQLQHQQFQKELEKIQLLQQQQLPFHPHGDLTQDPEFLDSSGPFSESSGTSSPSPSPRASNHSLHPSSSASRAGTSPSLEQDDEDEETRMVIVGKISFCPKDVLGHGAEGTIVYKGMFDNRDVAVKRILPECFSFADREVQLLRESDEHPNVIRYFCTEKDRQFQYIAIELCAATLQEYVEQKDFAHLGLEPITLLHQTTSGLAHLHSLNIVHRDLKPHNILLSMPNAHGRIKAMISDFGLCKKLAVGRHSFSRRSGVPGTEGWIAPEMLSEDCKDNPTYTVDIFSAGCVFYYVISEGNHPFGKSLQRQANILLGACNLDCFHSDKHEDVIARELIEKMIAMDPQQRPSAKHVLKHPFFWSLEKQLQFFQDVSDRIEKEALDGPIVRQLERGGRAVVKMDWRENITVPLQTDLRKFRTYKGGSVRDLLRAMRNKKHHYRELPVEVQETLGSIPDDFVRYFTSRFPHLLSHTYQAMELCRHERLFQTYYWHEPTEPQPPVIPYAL
Protocol: as §3, §4
Hepatocytes from mouse liver were isolated by a two-step collagenase procedure, as we described18,23 and cultured in media detailed in Supporting Methods. […] After 48 hr of transfection, cells were treated with TM (1 μg/ml) or LPS (100 ng/ml) for the determined times. […] Cell viability was determined by a colorimetric assay (MTT) detailed in Supporting Methods. […]

[2] = tested on: primary hepatocytes isolated from the livers of BI-1−/− and WT mice; experiment: Primary hepatocyte viability (MTT) with TM or LPS; type: cell-based, mouse
Protocol: (§5) Hepatocytes from mouse liver were isolated by a two-step collagenase procedure, as we described18,23 and cultured in media detailed in Supporting Methods. When indicated, primary hepatocytes were transfected with Stealth siRNA (targeting BI-1, IRE1α, XBP1 or CHOP with the corresponding control of Low or Medium CG) at 30 nM using Lipofectamine RNAiMAX (ThermoFisher Scientific, Courtaboeuf, France) according to the manufacturer's instructions. After 48 hr of transfection, cells were treated with TM (1 μg/ml) or LPS (100 ng/ml) for the determined times. Primary hepatocytes isolated from the livers of BI-1−/− and WT mice were treated with TM or LPS in the presence or absence of STF-083010 (60 μM) or Ac-YVAD-CMK (25 μM). Cell viability was determined by a colorimetric assay (MTT) detailed in Supporting Methods. Results are presented as a percentage of the control values.

NLRP3 inflammasome = experiment: Caspase-11 and NLRP3 overexpression in LPS-treated primary hepatocytes; type: cell-based, mouse; conditions: LPS-treated BI-1−/− primary hepatocytes; STF-083010 60 μM
Protocol: as §4
as §5, with “Results are presented as a percentage of the control values.” left out

xenograft HepG2 cells = experiment: Xenograft mouse model of HCC, tumor volume; type: in vivo, mice
Protocol: FIG. 6A-B: Inhibition of IRE1α RNase activity with STF potentiates Sorafenib action in vivo. (A) Protocol timeline for Sorafenib (30 mg/kg i.p. daily) and/or STF-083010 (30 mg/kg i.p. twice a week) injections in mice with xenograft HepG2 cells. (B) Effect of SORA, STF, and their combination on tumor volume in mice. $p<0.05 when comparing treated to untreated counterpart. Results are expressed as mean with SEM *p<0.05.

[3] = BI-1−/− mice after 3 months of HFD
[4] = BI-1−/− mice, twice a week for 2 weeks towards the end of a 3-month HFD

With Ac-YVAD-CMK the “effectiveness of sorafenib in reducing liver cancer cell proliferation” value ([1]; HepG2, YVAD 25 μM added one hour before Sorafenib, 24 hours, not more efficiently than SFT-083010, FIG. 4) was “enhances” and the “effectiveness of sorafenib in inducing apoptosis” value (HCC cell lines; HepG2, YVAD 25 μM added one hour before Sorafenib, not more efficiently than SFT-083010, FIG. 4) was “enhances”.
With `Cc1cc(=O)oc2c(C=O)c(O)ccc12` [4μ8c] the “liver cancer cell proliferation and apoptosis, alone and co-treated with sorafenib (confirmation of the STF-083010 data)” value [1] was “confirmed”.
`CN1C(=O)C(Cc2c[nH]c3ccccc23)NC1=S` (stereo not shown) [Necrostatin-1] was tested, and the “effect of Sorafenib and SFT-083010 on cancer cell proliferation after pre-treatment” value ([1]; HepG2, 50 μM pre-treatment, Sorafenib 5 μM, STF 60 μM, 24 hours, FIGS. 5A and 5B) was “inhibit the effect”.
With `O=S(=O)(N=Cc1c(O)ccc2ccccc12)c1cccs1` [STF-083010, N-[(2-Hydroxy-1-naphthalenyl)methylene]-2-thiophenesulfonamide] the NASH development (HFD-fed BI-1−/− mice; BI-1-deficient mice, HFD) was “rescuing from NASH; also recorded: reverses the propensity”, the “histological signs of inflammation and grade-3 steatosis” value (HFD-fed BI-1−/− mice; BI-1−/− HFD mice, 30 mg/kg twice a week for 2 weeks) was “suppressed” and the “activation of caspase-1/-11 and NLRP3 proteins” value (HFD-fed BI-1−/− mice; BI-1−/− HFD-fed mice) was “counteracted the activation”. The “mRNA levels of NLRP3 inflammasome and pro-inflammatory response components” value (HFD-fed BI-1−/− mice; BI-1−/− HFD-fed mice) was “normalized”, the “collagen accumulation with cellular infiltration” value (HFD-fed BI-1−/− mice; [3]) was “prevented” and the “hepatic Col6a3 upregulation” value (HFD-fed BI-1−/− mice; [3]) was “significantly limited”. The “liver discoloration (macroscopic)” value (HFD-fed BI-1−/− mice; BI-1−/− mice fed a HFD for 3 months, 30 mg/kg twice a week for 2 weeks) was “prevented”, the “IRE1a endoribonuclease activity in vivo” value (HFD-fed BI-1−/− mice; [4]) was “effectively counteracted” and the glucose tolerance (HFD-fed BI-1−/− mice; [4]) was “improving”. For the same molecule, the “mRNA levels of metabolic master regulators (SREBP1, FASN and c-JUN)” value (HFD-fed BI-1−/− mice; HFD-fed BI-1−/− mice, liver qPCR, FIG. 2B) was “within normal mRNA levels”, the “lipid droplet diameter in hepatocytes” value (HFD-fed BI-1−/− mice; HFD-fed BI-1−/− mice, 30 mg/kg twice a week for 2 weeks) was “from massive to average size” and the liver triglyceride content (HFD-fed BI-1−/− mice; HFD-fed BI-1−/− mice, 30 mg/kg twice a week for 2 weeks, FIG. 1A) was “Normalized”. For the same molecule, the liver injury (HFD-fed BI-1−/− mice; HFD-fed mice, both genotypes) was “protected from liver injury”, the blood glucose concentrations (HFD-fed BI-1−/− mice; HFD-fed mice, FIG. 2C) was “normalization” and the “appearance of the liver” value (HFD-fed BI-1−/− mice; ND-fed mice) was “did not alter”. For the same molecule, the MPO-positive cells (HFD-fed BI-1−/− mice; STF-083010-treated versus untreated mice fed a HFD) was “significant decrease”, the “increase in BI-1 mRNA levels” value (HFD-fed BI-1−/− mice; WT mice fed a HFD, FIG. 1C) was 15% and the “CHOP/GRP78 ratio, protein and mRNA levels” value (HFD-fed BI-1−/− mice; livers from BI-1−/− mice, HFD) was “reduced”. For the same molecule, the “expression of IRE1α RNase target sXBP1, protein and mRNA levels” value (HFD-fed BI-1−/− mice; livers from BI-1−/− mice, HFD) was “reduced”, the “XBP1 mRNA levels” value (IRE1α RNase activity) was “decrease” and the sXBP1 protein (IRE1α RNase activity) was “decrease”. The “viability of WT hepatocytes” value ([2]; STF-083010 alone, 60 μM) was “compromised the viability”, the “viability of BI-1−/− hepatocytes” value ([2]; co-treated with TM and LPS, STF-083010 60 μM) was “improved the viability” and the “liver cancer cell proliferation” value ([1]; HepG2, Huh7 and Hep3B, 60 μM alone, 24 hours, FIG. 3A) was “reduces”. The “effectiveness of sorafenib in reducing liver cancer cell proliferation” value ([1]; co-treated with Sorafenib 5 μM, STF 60 μM added one hour before, 24 hours, FIG. 3A) was “improves their effectiveness”, the “overexpression of active caspase-11 and NLRP3” value (NLRP3 inflammasome) was “limited” and the “effectiveness of sorafenib in inducing apoptosis” value (HCC cell lines; HCC cell lines, co-treated with Sorafenib 5 μM, STF 60 μM, FIG. 3B) was “improves their effectiveness”. The “sorafenib-mediated tumor suppression (tumor volume)” value (xenograft HepG2 cells; STF-083010 30 mg/kg i.p. twice a week with Sorafenib 30 mg/kg i.p. daily, FIG. 6B) was “increased”.
In the case of `COc1cc2c(C)c(CC(=O)N3CCOCC3)c(=O)oc2c(C=O)c1O` [MKC6688], the “liver cancer cell proliferation and apoptosis, alone and co-treated with sorafenib (confirmation of the STF-083010 data)” value [1] is reported as “confirmed” and the “sorafenib-mediated tumor suppression (confirmation of the STF-083010 data)” value (xenograft HepG2 cells; data not shown) is reported as “confirmed”.
